Earlier results as cited in patent US20120201914A1, “Method and Composition for Improving Animal Oral Health” (priority 2011, published 2012).

Tested on: various oral pathogens, such as S. mutans, C. albicans, A. actinomycetemcomitans, F. nucleatum, and P. gingivalis
Settings: against various oral pathogens; recent studies

Row | SMILES | antibacterial activity
1 | CC/C=C\C/C=C\C/C=C\CCCCCCCC(=O)O [ALA, α-linolenic acid] | antibacterial activities
2 | CC/C=C\C/C=C\C/C=C\CCCCCCCC(=O)OCC [ALA-EE] | antibacterial activities
3 | CC/C=C\C/C=C\C/C=C\CCCCCCCC(=O)OC [ALA-ME] | antibacterial activities
4 | CC/C=C\C/C=C\C/C=C\C/C=C\C/C=C\C/C=C\CCC(=O)OCC [DHA-EE] | antibacterial activities
5 | CC/C=C\C/C=C\C/C=C\C/C=C\C/C=C\C/C=C\CCC(=O)OC [DHA-ME] | antibacterial activities
6 | CC/C=C\C/C=C\C/C=C\C/C=C\C/C=C\CCCC(=O)OCC [EPA-EE] | antibacterial activities
7 | CC/C=C\C/C=C\C/C=C\C/C=C\C/C=C\CCCC(=O)OC [EPA-ME] | antibacterial activities
